This test has as its target T1, c-kit mutant D816V (Homo sapiens, UniProt P10721, D816V/DEL694-753).
T1 construct: residues 551-934, kinase insertion domain residues 694-753 deleted; 6x-histidine (N); made in house; host or cells: E. coli Arctic Express (DE3) RIL (Stratagene)
As to the kind of experiment: c-Kit mutant D816V biochemical assay, AlphaScreen. The conditions noted are these: c-kit D816V biochemical inhibitory activity; read-out: Biochemical activity (IC50 μM) Kit D816V. The gist of the method: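 Eight-point, threefold compound series incubated 30 min at room temperature with E. coli-produced D816V kinase, 10 μM ATP, Mg2+/Mn2+ HEPES buffer pH 7.2 and 5% DMSO. After EDTA stop, streptavidin and anti-phosphotyrosine (PY20) AlphaScreen beads gave the read-out, and IC50 was fitted from the concentration–signal curve.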

Each structure is given as a SMILES string.

T1 sequence (P10721 with tags, fused parts or gaps DEL694-753/D816V): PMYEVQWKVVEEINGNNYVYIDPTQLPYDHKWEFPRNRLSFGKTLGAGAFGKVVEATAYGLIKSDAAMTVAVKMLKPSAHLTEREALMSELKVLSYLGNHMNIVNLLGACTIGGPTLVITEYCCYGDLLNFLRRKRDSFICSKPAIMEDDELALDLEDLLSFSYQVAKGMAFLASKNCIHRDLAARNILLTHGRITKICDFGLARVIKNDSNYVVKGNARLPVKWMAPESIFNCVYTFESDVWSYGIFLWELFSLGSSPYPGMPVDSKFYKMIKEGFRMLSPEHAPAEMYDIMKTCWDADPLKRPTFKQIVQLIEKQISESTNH

A word on the IC50: it is the point on the concentration scale where inhibition reaches its midpoint. As for `CCCc1ccc(S(=O)(=O)NC2CC=C(c3ncnc4[nH]c(C)cc34)CC2)cc1` (stereo not shown) [P-0651, N-[4-(6-methyl-7H-pyrrolo[2,3-d]pyrimidin-4-yl)cyclohex-3-en-1-yl]-4-propyl-benzenesulfonamide], the IC50 lay in the range of 0.0001 to 1 µM.

As for `Cc1cc2c(C3=CCC(NS(=O)(=O)c4ccc(OC(C)C)cc4)CC3)ncnc2[nH]1` (stereo not shown) [P-0652, 4-isopropoxy-N-[4-(6-methyl-7H-pyrrolo[2,3-d]pyrimidin-4-yl)cyclohex-3-en-1-yl]benzenesulfonamide], the half-maximal inhibitory concentration (IC50) lay within 1 to 10 µM.

In the case of `Cc1cc2c(C3=CCC(NS(=O)(=O)c4ccc(OC(F)F)cc4)CC3)ncnc2[nH]1` (stereo not shown) [P-0653, 4-(difluoromethoxy)-N-[4-(6-methyl-7H-pyrrolo[2,3-d]pyrimidin-4-yl)cyclohex-3-en-1-yl]benzenesulfonamide], the concentration for half-maximal inhibition (IC50) lay within 1 to 10 µM.

For `Cc1cc2c(N3CCC(NS(=O)(=O)c4ccc(OC(F)F)cc4)CC3)ncnc2[nH]1` [P-0656, 4-(difluoromethoxy)-N-[1-(6-methyl-7H-pyrrolo[2,3-d]pyrimidin-4-yl)-4-piperidyl]benzenesulfonamide], the IC50 lay in the range of 10 to 200 µM.

Consider `Cc1cc2c(N3CCC(NS(=O)(=O)c4ccc(C(C)C)cc4)CC3)ncnc2[nH]1` [P-0657, 4-isopropyl-N-[1-(6-methyl-7H-pyrrolo[2,3-d]pyrimidin-4-yl)-4-piperidyl]benzenesulfonamide], for which the 50% inhibitory concentration (IC50) lay within 10 to 200 µM.

On to `CCCc1ccc(S(=O)(=O)NC2CCN(c3ncnc4[nH]c(C)cc34)CC2)cc1` [P-0658, N-[1-(6-methyl-7H-pyrrolo[2,3-d]pyrimidin-4-yl)-4-piperidyl]-4-propyl-benzenesulfonamide], for which the half-inhibitory concentration (IC50) was in the range of 1 to 10 µM.

Regarding `Cc1ccc(S(=O)(=O)NC2CCN(c3ncnc4[nH]c(-c5cn(C)nc5C)cc34)CC2)cc1` [P-0659, N-[1-[6-(1,3-dimethylpyrazol-4-yl)-7H-pyrrolo[2,3-d]pyrimidin-4-yl]-4-piperidyl]-4-methyl-benzenesulfonamide], the half-maximal inhibitory concentration (IC50) was 0.0001 to 1 µM.

With `COc1cc(-c2cc3c(N4CCC(NS(=O)(=O)c5ccc(C)cc5)CC4)ncnc3[nH]2)ccn1` [P-0660, N-[1-[6-(2-methoxy-4-pyridyl)-7H-pyrrolo[2,3-d]pyrimidin-4-yl]-4-piperidyl]-4-methyl-benzenesulfonamide], the IC50 lay within 0.0001 to 1 µM.

On to `Cc1csc(-c2cc3c(N4CCC(NS(=O)(=O)c5ccc(OC(F)(F)F)cc5)CC4)ncnc3[nH]2)c1` [P-0661, N-[1-[6-(4-methyl-2-thienyl)-7H-pyrrolo[2,3-d]pyrimidin-4-yl]-4-piperidyl]-4-(trifluoromethoxy)benzenesulfonamide], for which the 50% inhibitory concentration (IC50) is 10 to 200 µM.

On to `CC1(C)C=C(c2cc3c(N4CCC(NS(=O)(=O)c5ccc(OC(F)(F)F)cc5)CC4)ncnc3[nH]2)CC(C)(C)O1` [P-0663, N-[1-[6-(2,2,6,6-tetramethyl-3H-pyran-4-yl)-7H-pyrrolo[2,3-d]pyrimidin-4-yl]-4-piperidyl]-4-(trifluoromethoxy)benzenesulfonamide], for which the half-inhibitory concentration (IC50) lay within 10 to 200 µM.

Take `COc1cc(-c2cc3c(N4CCC(NS(=O)(=O)c5ccc(Cl)cc5)CC4)ncnc3[nH]2)ccn1` [P-0666, 4-chloro-N-[1-[6-(2-methoxy-4-pyridyl)-7H-pyrrolo[2,3-d]pyrimidin-4-yl]-4-piperidyl]benzenesulfonamide]: the half-maximal inhibitory concentration (IC50) is 0.0001 to 1 µM.

`C[C@H](NC(=O)N1CCN(c2ncnc3ccsc23)CC1(C)C)c1cccc(Cl)c1` [P-0677, N-[(1S)-1-(3-chlorophenyl)ethyl]-2,2-dimethyl-4-thieno[3,2-d]pyrimidin-4-yl-piperazine-1-carboxamide]: the half-inhibitory concentration (IC50) lay within 1 to 10 µM.

For `CC(C)(NC(=O)N1CCN(c2ncnc3cc(-c4ccc(F)cc4)sc23)CC1(C)C)c1ccccc1` [P-0678, 4-[6-(4-fluorophenyl)thieno[3,2-d]pyrimidin-4-yl]-2,2-dimethyl-N-(1-methyl-1-phenyl-ethyl)piperazine-1-carboxamide], the 50% inhibitory concentration (IC50) is 1 to 10 µM.

As for `C[C@H](NC(=O)N1CCN(c2ncnc3[nH]c(-c4ccc(C#N)cc4)cc23)CC1(C)C)c1ccc(F)cc1` [P-0685, 4-[6-(4-cyanophenyl)-7H-pyrrolo[2,3-d]pyrimidin-4-yl]-N-[(1S)-1-(4-fluorophenyl)ethyl]-2,2-dimethyl-piperazine-1-carboxamide], the IC50 is 1 to 10 µM.

Regarding `C[C@H](NC(=O)N1CCN(c2ncnc3[nH]c(-c4ccc(C#N)cc4)cc23)CC1(C)C)c1ccc(Cl)cc1` [P-0686, N-[(1S)-1-(4-chlorophenyl)ethyl]-4-[6-(4-cyanophenyl)-7H-pyrrolo[2,3-d]pyrimidin-4-yl]-2,2-dimethyl-piperazine-1-carboxamide], the IC50 lay within 10 to 200 µM.

`C[C@H](NC(=O)N1CCN(c2ncnc3[nH]c(-c4ccc(C#N)cc4)cc23)C[C@H]1C)c1cccc(F)c1` [P-0693, (2R)-4-[6-(4-cyanophenyl)-7H-pyrrolo[2,3-d]pyrimidin-4-yl]-N-[(1S)-1-(3-fluorophenyl)ethyl]-2-methyl-piperazine-1-carboxamide]: the IC50 lay in the range of 0.0001 to 1 µM.

Regarding `C[C@H](NC(=O)N1CCN(c2ncnc3[nH]c(-c4ccc(C#N)cc4)cc23)CC1)c1ccc(F)cc1` [P-0696, 4-[6-(4-cyanophenyl)-7H-pyrrolo[2,3-d]pyrimidin-4-yl]-N-[(1S)-1-(4-fluorophenyl)ethyl]piperazine-1-carboxamide], the IC50 was 0.0001 to 1 µM.

Take `C[C@H](NC(=O)N1CCN(c2ncnc3[nH]c(-c4ccc(C#N)cc4)cc23)CC1(C)C)c1cccc(OC(F)F)c1` [P-0698, 4-[6-(4-cyanophenyl)-7H-pyrrolo[2,3-d]pyrimidin-4-yl]-N-[(1S)-1-[3-(difluoromethoxy)phenyl]ethyl]-2,2-dimethyl-piperazine-1-carboxamide]: the 50% inhibitory concentration (IC50) fell in the range of 0.0001 to 1 µM.

On to `C[C@H](NC(=O)N1CCN(c2ncnc3[nH]c(-c4ccc(C#N)cc4)cc23)C[C@H]1C)c1cccc(OC(F)F)c1` [P-0699, (2R)-4-[6-(4-cyanophenyl)-7H-pyrrolo[2,3-d]pyrimidin-4-yl]-N-[(1S)-1-[3-(difluoromethoxy)phenyl]ethyl]-2-methyl-piperazine-1-carboxamide], for which the IC50 fell in the range of 0.0001 to 1 µM.

Take `C[C@H](NC(=O)N1CCN(c2ncnc3[nH]c(-c4ccc(F)cc4)cc23)C[C@H]1C)c1cccc(Cl)c1` [P-0701, (2R)-N-[(1S)-1-(3-chlorophenyl)ethyl]-4-[6-(4-fluorophenyl)-7H-pyrrolo[2,3-d]pyrimidin-4-yl]-2-methyl-piperazine-1-carboxamide]: the IC50 lay within 0.0001 to 1 µM.

With `C[C@H](NC(=O)N1CCN(c2ncnc3[nH]c(-c4ccc(C#N)cc4)cc23)CC1)c1ccc(Cl)cc1` [P-0702, N-[(1S)-1-(4-chlorophenyl)ethyl]-4-[6-(4-cyanophenyl)-7H-pyrrolo[2,3-d]pyrimidin-4-yl]piperazine-1-carboxamide], the IC50 was 0.0001 to 1 µM.

Take `Cc1ccc(C(C)NC(=O)N2CCN(c3ncnc4cc(-c5ccc(F)cc5)sc34)CC2)s1` (stereo not shown) [P-0703, 4-[6-(4-fluorophenyl)thieno[3,2-d]pyrimidin-4-yl]-N-[1-(5-methyl-2-thienyl)ethyl]piperazine-1-carboxamide]: the IC50 was in the range of 0.0001 to 1 µM.

On to `Cc1nn(C)cc1-c1cc2ncnc(N3CC4CCC3CN4C(=O)N[C@H](C)c3ccc(F)cc3)c2s1` (stereo partly drawn) [P-0704, 5-[6-(1,3-dimethylpyrazol-4-yl)thieno[3,2-d]pyrimidin-4-yl]-N-[(1R)-1-(4-fluorophenyl)ethyl]-2,5-diazabicyclo[2.2.2]octane-2-carboxamide], for which the IC50 lay in the range of 0.0001 to 1 µM.

Turning to `COc1cc(-c2cc3c(N4CCN(C(=O)N[C@@H](C)c5cccc(Cl)c5)[C@H](C)C4)ncnc3[nH]2)ccn1` [P-0711, (2R)-N-[(1S)-1-(3-chlorophenyl)ethyl]-4-[6-(2-methoxy-4-pyridyl)-7H-pyrrolo[2,3-d]pyrimidin-4-yl]-2-methyl-piperazine-1-carboxamide], the IC50 fell in the range of 0.0001 to 1 µM.

Take `Cc1ccc([C@H](C)NC(=O)N2CCN(c3ncnc4[nH]c(-c5ccc(F)cc5)cc34)CC2)cc1` [P-0713, 4-[6-(4-fluorophenyl)-7H-pyrrolo[2,3-d]pyrimidin-4-yl]-N-[(1S)-1-(p-tolyl)ethyl]piperazine-1-carboxamide]: the IC50 was 0.0001 to 1 µM.

For the origin of these results see patent US10227357B2, “Compounds and methods for kinase modulation, and indications therefor” (Plexxikon Inc., priority 2012, dated 2019).
